# Measured values published in US10072026B2, “Crystalline form of 3-((1R,3s,5S)-3-((7-((5-methyl-1H-pyrazol-3-yl)amino)-1,6-naphthyridin-5-yl)amino)-8-azabicyclo[3.2.1]octan-8-yl)propanenitrile” (priority 2015, dated 2018).
# Read-outs that look alike come from different tables or passages of the source.
# Tests used:
# [1] = test system: IL-13 induced STAT6 phosphorylation in BEAS-2B human lung epithelial cells; test: AlphaScreen cellular JAK potency assay, BEAS-2B; conditions: for IC50: Homo sapiens, BEAS-2B, read-out: BEAS2B pIC50 (converted); for BEAS2B pIC50: IL-13 induced STAT6 phosphorylation, BEAS-2B cells
# [2] = test system: IL-4 induced STAT6 phosphorylation in THP-1 human monocytic cells; test: Cellular JAK potency assay, THP-1; conditions: for IC50: Homo sapiens, THP-1, read-out: THP-1 IL4 pIC50 (converted); for THP-1 IL4 pIC50: IL-4 induced STAT6 phosphorylation, THP-1 cells
# [3] = test system: oxazolone-induced colitis; test: Mouse model of oxazolone-induced colitis; assay type: in vivo, BALB/C mice; conditions: mouse, PO, 1, 3, and/or 10 mg/kg BID
# Description: Assay 7: Mouse Model of Oxazalone-Induced Colitis
# Oxazolone-induced colitis is an experimental model that has a histological resemblance to human ulcerative colitis (Heller et al. Immunology, 2002, 17, 629-638). Adult BALB/C mice from Harlan were used in the assay. On day 1, animals were lightly anesthetized with isoflurane and the hairs between the shoulder were carefully removed before oxazolone (4%, 150 μL, 4:1 acetone:olive oil formulation) or vehicle solution was slowly applied for skin sensitization. Seven days after skin sensitization, the mice were fasted overnight, anesthetized with isoflurane inhalation, and a 1 mL syringe equipped with a 3.5-F catheter, filled with oxazolone solution, was inserted carefully about 4 cm into the colon of the mouse. Following insertion, 50 μL of the oxazolone solution (1%, 1:1 ethanol:water formulation) was injected very slowly (over 30 sec using an injection pump) into the colon. The catheter was removed and the mice were held vertically (head down) for 2 min to ensure that the entire oxazolone solution remained inside the colon. Drug treatment (PO, BID or TID) or vehicle was initiated a day prior to the oxazolone intrarectal (IR) challenge. Two-day post oxazolone intrarectal challenge, the Disease Activity Index (DAI) was assessed by treatment-blinded experimenters for each mouse according to the criteria score: stool consistency score (0, normal; 2, loose; 4, diarrhea), gross bleeding score (0, absence; 2, blood tinged; 4, presence), and weight loss score (0, none; 1, 1%-5%; 2, 5%-10%; 3, 10%-20%; 4, more than 20%); DAI=average of (stool consistency score+gross bleeding score+weight loss score).
# Selected compounds of the invention were tested in the assay. Efficacy in the model is evidenced by a decrease in DAI score as compared with the score from vehicle treated animals.
# JAK1 = JAK1 (Homo sapiens (Human), UniProt P23458); test: LanthaScreen JAK biochemical assay (JAK1)
# in vivo = test: in vivo; parameters: species or system Sprague Dawley rats; conditions: Sprague Dawley, rat, po, 5 mg/kg
# Description: Assay 5: Colon Pharmacokinetics in Rats
# Test compounds were individually formulated in 0.5% methyl-cellulose in water and dosed via oral gavage at 5 mg/kg to Sprague Dawley rats. At various time points (typically 1, 2, 4, 6, 24 hr) post dosing, blood samples were removed via cardiac puncture and intact colons were excised from the rats. Blood samples were centrifuged at 1500×g for 15 min to collect plasma. Colons were washed with ice cold phosphate buffered saline (PBS), weighed, and homogenized at a dilution of 1:10 in PBS. Plasma and colon levels of test compound were determined by LC-MS analysis against analytical standards constructed into a standard curve in the test matrix. A colon to plasma ratio was determined as the ratio of the colon AUC to the plasma AUC in μg hr/g.
# JAK2 = JAK2 (Homo sapiens (Human), UniProt O60674); test: LanthaScreen JAK biochemical assay (JAK2)
# Tyk2 = Tyk2 (Homo sapiens (Human), UniProt P29597); test: LanthaScreen JAK biochemical assay (Tyk2)
# JAK3 = JAK3 (Homo sapiens (Human), UniProt P52333); test: LanthaScreen JAK biochemical assay (JAK3)
# [4] = Determination of absorption in cannulated rats; assay type: in vivo; conditions: Sprague Dawley rats, oral vs IV; for bioavailability: rat, plasma (jugular vein), jugular vein, read-out: oral bioavailability (F %)
# Description: Drug levels were determined using an LC-MS-MS method. The resulting drug levels were used to compute the IV pharmacokinetic parameters: AUC IV and Dose IV. (2) Rats that have been cannulated in their portal vein (PV) and also in their jugular vein (JV) were dosed orally with test compound. Following oral dosing, plasma samples were typically collected from 0-6 hr from both the portal vein and the jugular vein. Drug levels were determined using an LC-MS-MS method. The resulting drug levels were used to compute the following pharmacokinetic parameters: AUC PO PV, AUC PO JV, and Dose PO. Using data derived from the above studies, the oral bioavailability F %, and the quantities Fa% and Fh% were calculated from the following formulas: F %=(AUC PO JV/AUC IV)*(Dose IV/Dose PO)*100 Fa%=(AUC PO PV/AUC IV)*(Dose IV/Dose PO)*100 Fh%=AUC PO JV/AUC PO PV where: AUC PO JV=Area under the curve following oral dose and plasma collected from the jugular vein AUC PO PV=Area under the curve following oral dose and plasma collected from the portal vein AUC IV=Area under the curve following an intravenous dose Dose IV=Intravenous Dose in mg/kg Dose PO=Oral Dose in mg/kg
# Chain of Tyk2 (P29597 whole entry): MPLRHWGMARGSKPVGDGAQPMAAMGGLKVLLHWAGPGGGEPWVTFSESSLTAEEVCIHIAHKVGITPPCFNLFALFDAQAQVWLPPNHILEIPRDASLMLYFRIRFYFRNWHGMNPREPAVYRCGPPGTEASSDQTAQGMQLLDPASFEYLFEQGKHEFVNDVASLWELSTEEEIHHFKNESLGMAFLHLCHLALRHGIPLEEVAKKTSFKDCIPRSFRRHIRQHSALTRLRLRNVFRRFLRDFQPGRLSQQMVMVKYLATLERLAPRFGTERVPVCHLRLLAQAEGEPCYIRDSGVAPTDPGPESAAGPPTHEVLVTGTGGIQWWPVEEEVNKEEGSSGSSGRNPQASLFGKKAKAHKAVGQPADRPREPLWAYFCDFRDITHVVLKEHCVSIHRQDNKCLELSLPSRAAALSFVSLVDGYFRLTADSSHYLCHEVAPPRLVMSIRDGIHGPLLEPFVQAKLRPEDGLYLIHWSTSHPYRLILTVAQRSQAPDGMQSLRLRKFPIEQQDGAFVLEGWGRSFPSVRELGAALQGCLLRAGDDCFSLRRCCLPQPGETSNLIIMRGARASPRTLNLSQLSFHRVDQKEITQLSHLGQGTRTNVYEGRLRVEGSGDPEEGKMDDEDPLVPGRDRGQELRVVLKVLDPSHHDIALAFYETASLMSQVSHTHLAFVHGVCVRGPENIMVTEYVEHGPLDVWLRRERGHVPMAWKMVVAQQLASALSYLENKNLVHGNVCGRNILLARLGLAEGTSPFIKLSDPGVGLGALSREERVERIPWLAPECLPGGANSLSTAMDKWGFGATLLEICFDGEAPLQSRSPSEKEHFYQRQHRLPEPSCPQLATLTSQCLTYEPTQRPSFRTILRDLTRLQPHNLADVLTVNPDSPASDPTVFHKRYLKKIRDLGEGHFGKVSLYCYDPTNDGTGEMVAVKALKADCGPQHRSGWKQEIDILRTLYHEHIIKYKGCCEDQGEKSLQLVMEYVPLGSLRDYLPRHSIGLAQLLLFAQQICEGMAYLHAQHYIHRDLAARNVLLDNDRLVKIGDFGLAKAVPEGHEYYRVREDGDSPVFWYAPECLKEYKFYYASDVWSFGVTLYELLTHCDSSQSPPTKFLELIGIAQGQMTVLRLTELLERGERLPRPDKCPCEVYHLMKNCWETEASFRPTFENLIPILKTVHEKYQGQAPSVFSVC
# Chain of JAK1 (P23458 whole entry): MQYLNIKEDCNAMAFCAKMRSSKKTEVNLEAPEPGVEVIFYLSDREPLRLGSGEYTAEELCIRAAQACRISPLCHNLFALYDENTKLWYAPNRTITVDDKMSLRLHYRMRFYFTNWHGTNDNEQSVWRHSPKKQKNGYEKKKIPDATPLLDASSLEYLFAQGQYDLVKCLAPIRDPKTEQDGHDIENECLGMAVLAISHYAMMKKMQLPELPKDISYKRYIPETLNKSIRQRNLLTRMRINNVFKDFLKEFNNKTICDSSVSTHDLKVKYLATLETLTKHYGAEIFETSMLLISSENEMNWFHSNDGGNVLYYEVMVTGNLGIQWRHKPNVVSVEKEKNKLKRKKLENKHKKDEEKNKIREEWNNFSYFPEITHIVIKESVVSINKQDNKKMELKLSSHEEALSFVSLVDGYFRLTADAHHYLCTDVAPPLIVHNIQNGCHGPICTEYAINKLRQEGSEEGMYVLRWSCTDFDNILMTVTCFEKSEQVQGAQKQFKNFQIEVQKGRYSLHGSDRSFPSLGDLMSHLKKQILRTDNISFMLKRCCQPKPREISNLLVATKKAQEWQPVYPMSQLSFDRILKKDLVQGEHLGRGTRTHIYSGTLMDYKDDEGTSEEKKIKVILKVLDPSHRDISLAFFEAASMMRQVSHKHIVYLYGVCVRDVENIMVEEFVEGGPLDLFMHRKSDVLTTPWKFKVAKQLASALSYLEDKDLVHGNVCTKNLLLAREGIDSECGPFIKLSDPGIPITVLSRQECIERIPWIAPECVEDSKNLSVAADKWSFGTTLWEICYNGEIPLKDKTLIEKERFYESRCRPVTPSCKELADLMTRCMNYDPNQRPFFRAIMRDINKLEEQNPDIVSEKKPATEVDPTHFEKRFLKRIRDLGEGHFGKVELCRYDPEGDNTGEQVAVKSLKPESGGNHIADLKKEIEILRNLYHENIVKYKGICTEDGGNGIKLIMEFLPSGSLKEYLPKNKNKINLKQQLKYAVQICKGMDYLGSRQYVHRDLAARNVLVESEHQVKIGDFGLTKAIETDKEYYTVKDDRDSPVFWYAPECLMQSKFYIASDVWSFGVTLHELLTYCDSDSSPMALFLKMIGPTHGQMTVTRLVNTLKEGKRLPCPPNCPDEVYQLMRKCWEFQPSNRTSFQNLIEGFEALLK
# Chain of JAK2 (O60674 whole entry): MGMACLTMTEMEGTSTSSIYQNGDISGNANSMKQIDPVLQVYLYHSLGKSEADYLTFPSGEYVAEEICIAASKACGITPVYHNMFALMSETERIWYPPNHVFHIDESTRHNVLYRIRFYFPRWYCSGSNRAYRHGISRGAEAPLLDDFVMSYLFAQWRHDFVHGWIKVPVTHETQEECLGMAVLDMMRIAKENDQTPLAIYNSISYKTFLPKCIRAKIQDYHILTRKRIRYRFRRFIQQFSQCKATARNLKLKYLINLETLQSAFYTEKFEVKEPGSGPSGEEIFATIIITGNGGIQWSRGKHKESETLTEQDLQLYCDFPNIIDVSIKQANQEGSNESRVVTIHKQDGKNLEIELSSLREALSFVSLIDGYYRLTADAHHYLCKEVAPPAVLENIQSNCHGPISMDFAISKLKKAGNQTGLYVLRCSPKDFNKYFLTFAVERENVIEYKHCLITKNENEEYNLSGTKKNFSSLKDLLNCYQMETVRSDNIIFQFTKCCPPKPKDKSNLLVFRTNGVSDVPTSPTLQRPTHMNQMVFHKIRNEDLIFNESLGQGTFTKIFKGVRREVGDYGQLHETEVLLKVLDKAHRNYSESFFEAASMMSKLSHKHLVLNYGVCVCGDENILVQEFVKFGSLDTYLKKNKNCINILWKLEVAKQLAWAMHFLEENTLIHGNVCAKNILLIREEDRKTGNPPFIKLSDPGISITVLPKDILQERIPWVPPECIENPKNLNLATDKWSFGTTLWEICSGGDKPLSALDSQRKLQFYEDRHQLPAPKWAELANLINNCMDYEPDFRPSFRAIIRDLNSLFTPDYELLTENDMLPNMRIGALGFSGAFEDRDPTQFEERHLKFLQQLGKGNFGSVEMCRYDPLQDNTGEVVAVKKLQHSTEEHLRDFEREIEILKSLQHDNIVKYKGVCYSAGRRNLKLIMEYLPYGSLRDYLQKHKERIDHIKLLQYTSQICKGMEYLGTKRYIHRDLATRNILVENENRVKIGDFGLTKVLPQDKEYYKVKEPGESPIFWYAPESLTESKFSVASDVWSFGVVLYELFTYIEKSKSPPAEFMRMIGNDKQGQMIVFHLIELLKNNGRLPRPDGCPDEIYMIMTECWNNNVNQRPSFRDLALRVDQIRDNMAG
SMILES,IC50 [1] [nM],IC50 [2] [nM],decrease in DAI score as compared with vehicle treated animals [3],Ki (JAK1; read-out: JAK 1 (pKi) (converted)) [nM],Kp (in vivo),Ki (JAK2) [nM],BEAS2B pIC50 [1],THP-1 IL4 pIC50 [2],Tyk 2 (pKi) (Tyk2),JAK 1 (pKi) (JAK1),JAK 3 (pKi) (JAK3),JAK 2 (pKi) (JAK2),absorption at the portal vein (Fa%) [4],bioavailability [4] [%],Ki (JAK1) [nM],Ki (JAK2; read-out: JAK 2 (pKi) (converted)) [nM]
"Cc1cc(Nc2cc3ncccc3c(N[C@@H]3C[C@H]4CC[C@@H](C3)N4CCF)n2)n[nH]1 [Example 2, N^5-((1R,3s,5S)-8-(2-fluoroethyl)-8-azabicyclo[3.2.1]octan-3-yl)-N^7-(5-methyl-1H-pyrazol-3-yl)-1,6-naphthyridine-5,7-diamine]",31.6 to 200,31.6 to 200,statistically significant decrease,0.1 to 1,> 450,0.1 to 1,–,–,–,–,–,–,–,–,–,–
CCC(C)C(=O)N1C2CCC1CC(Nc1nc(Nc3cc(C)[nH]n3)cc3ncccc13)C2 (centres unmarked) [Example 2-6],–,–,did not exhibit a statistically significant decrease,–,–,–,A (A represents a pEC50 value≥7.5 (EC50≤32 nM)),B (B represents a pEC50 value between 6.7 and 7.5 (EC50 between 200 nM and 32 nM)),C (C represents a pKi value between 7 and 9 (Ki between 100 nM and 1 nM)),B (B represents a pKi value between 9 and 10 (Ki between 1 nM and 0.1 nM)),C (C represents a pKi value between 7 and 9 (Ki between 100 nM and 1 nM)),B (B represents a pKi value between 9 and 10 (Ki between 1 nM and 0.1 nM)),–,–,–,–
Cc1cc(Nc2cc3ncccc3c(NC3CC4CCCC(C3)N4C(=O)C(C)O)n2)n[nH]1 (centres unmarked) [Example 2-16],–,–,did not exhibit a statistically significant decrease,–,–,–,B (B represents a pEC50 value between 6.7 and 7.5 (EC50 between 200 nM and 32 nM)),B (B represents a pEC50 value between 6.7 and 7.5 (EC50 between 200 nM and 32 nM)),B (B represents a pKi value between 9 and 10 (Ki between 1 nM and 0.1 nM)),B (B represents a pKi value between 9 and 10 (Ki between 1 nM and 0.1 nM)),C (C represents a pKi value between 7 and 9 (Ki between 100 nM and 1 nM)),B (B represents a pKi value between 9 and 10 (Ki between 1 nM and 0.1 nM)),–,–,–,–
CCOCC(=O)N1[C@@H]2CCC[C@H]1C[C@H](Nc1nc(Nc3cc(C)[nH]n3)cc3ncccc13)C2 [Example 2-17],–,–,did not exhibit a statistically significant decrease,–,–,–,A (A represents a pEC50 value≥7.5 (EC50≤32 nM)),B (B represents a pEC50 value between 6.7 and 7.5 (EC50 between 200 nM and 32 nM)),–,B (B represents a pKi value between 9 and 10 (Ki between 1 nM and 0.1 nM)),C (C represents a pKi value between 7 and 9 (Ki between 100 nM and 1 nM)),B (B represents a pKi value between 9 and 10 (Ki between 1 nM and 0.1 nM)),–,–,–,–
Cc1cc(Nc2cc3ncccc3c(N[C@@H]3C[C@H]4CCC[C@@H](C3)N4C(=O)C(C)(C)CO)n2)n[nH]1 [Example 2-22],–,–,did not exhibit a statistically significant decrease,–,–,–,A (A represents a pEC50 value≥7.5 (EC50≤32 nM)),B (B represents a pEC50 value between 6.7 and 7.5 (EC50 between 200 nM and 32 nM)),B (B represents a pKi value between 9 and 10 (Ki between 1 nM and 0.1 nM)),B (B represents a pKi value between 9 and 10 (Ki between 1 nM and 0.1 nM)),C (C represents a pKi value between 7 and 9 (Ki between 100 nM and 1 nM)),B (B represents a pKi value between 9 and 10 (Ki between 1 nM and 0.1 nM)),–,–,–,–
Cc1cc(Nc2cc3ncccc3c(N[C@@H]3C[C@H]4CC[C@@H](C3)N4S(=O)(=O)CC(C)C)n2)n[nH]1 [Example 4-3],–,–,did not exhibit a statistically significant decrease,–,–,–,A (A represents a pEC50 value≥7.5 (EC50≤32 nM)),A (A represents a pEC50 value≥7.5 (EC50≤32 nM)),B (B represents a pKi value between 9 and 10 (Ki between 1 nM and 0.1 nM)),B (B represents a pKi value between 9 and 10 (Ki between 1 nM and 0.1 nM)),C (C represents a pKi value between 7 and 9 (Ki between 100 nM and 1 nM)),B (B represents a pKi value between 9 and 10 (Ki between 1 nM and 0.1 nM)),–,–,–,–
COCCS(=O)(=O)N1[C@@H]2CCC[C@H]1C[C@H](Nc1nc(Nc3cc(C)[nH]n3)cc3ncccc13)C2 [Example 4-19],–,–,did not exhibit a statistically significant decrease,–,–,–,A (A represents a pEC50 value≥7.5 (EC50≤32 nM)),A (A represents a pEC50 value≥7.5 (EC50≤32 nM)),B (B represents a pKi value between 9 and 10 (Ki between 1 nM and 0.1 nM)),–,C (C represents a pKi value between 7 and 9 (Ki between 100 nM and 1 nM)),–,–,–,–,–
"Cc1cc(Nc2cc3ncccc3c(N[C@@H]3C[C@H]4CC[C@@H](C3)N4C(=O)C(F)F)n2)n[nH]1 [Example 5, 2,2-difluoro-1-((1R,3s,5S)-3-((7-((5-methyl-1H-pyrazol-3-yl)amino)-1,6-naphthyridin-5-yl)amino)-8-azabicyclo[3.2.1]octan-8-yl)ethan-1-one]",–,–,statistically significant decrease,–,> 450,–,–,–,–,–,–,–,–,–,–,–
"Cc1cc(Nc2cc3ncccc3c(N[C@@H]3C[C@H]4CCC[C@@H](C3)N4S(=O)(=O)c3cccnc3)n2)n[nH]1 [Example 8, N^7-(5-methyl-1H-pyrazol-3-yl)-N^5-((1R,3s,5S)-9-(pyridin-3-ylsulfonyl)-9-azabicyclo[3.3.1]nonan-3-yl)-1,6-naphthyridine-5,7-diamine]",< 31.6,< 31.6,statistically significant decrease,–,–,–,–,–,–,–,–,–,less than 10%,< 5,–,–
"Cc1cc(Nc2cc3nc(CO)ccc3c(N[C@@H]3C[C@H]4CC[C@@H](C3)N4C(=O)OCC(C)C)n2)n[nH]1 [Example 12, Isobutyl(1R,3s,5S)-3-((2-(hydroxymethyl)-7-((5-methyl-1H-pyrazol-3-yl)amino)-1,6-naphthyridin-5-yl)amino)-8-azabicyclo[3.2.1]octane-8-carboxylate]",31.6 to 200,31.6 to 200,statistically significant decrease,–,–,–,–,–,–,–,–,–,less than 10%,< 5,0.1 to 1,0.1 to 1
